Source: US6383812B1, “Anti liver disease drug R-YEEE and method of synthesizing branched galactose-terminal glycoproteins” (Academia Sinica, priority 1999, dated 2002)

How the values were obtained:
[1] = target: T1, asialoglycoprotein receptor (ASGPr) (Homo sapiens, UniProt P07306+P07307); test: Affinity of synthetic ligand to the asialoglycoprotein receptor; assay type: binding; conditions: relative to YEE(GalNAcAH)3; no method described
T1 sequence (P07306 1-291): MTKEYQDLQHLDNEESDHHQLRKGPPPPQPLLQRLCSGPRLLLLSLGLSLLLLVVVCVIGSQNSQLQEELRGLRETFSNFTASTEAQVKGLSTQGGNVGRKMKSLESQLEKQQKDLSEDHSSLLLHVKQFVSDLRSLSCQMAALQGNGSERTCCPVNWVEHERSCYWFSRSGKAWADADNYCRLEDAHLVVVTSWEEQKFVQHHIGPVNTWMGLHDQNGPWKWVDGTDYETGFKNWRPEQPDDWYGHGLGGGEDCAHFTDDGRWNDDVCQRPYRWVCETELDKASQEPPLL
T1 sequence (P07307 1-311): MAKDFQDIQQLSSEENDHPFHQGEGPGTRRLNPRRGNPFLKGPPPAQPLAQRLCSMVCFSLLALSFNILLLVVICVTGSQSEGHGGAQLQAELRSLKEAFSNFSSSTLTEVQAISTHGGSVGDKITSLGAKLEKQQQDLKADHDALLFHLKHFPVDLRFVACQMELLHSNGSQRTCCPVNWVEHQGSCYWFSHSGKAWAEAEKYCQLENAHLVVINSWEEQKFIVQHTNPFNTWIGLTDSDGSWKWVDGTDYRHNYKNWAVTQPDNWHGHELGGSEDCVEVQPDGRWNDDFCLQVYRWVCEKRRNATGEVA

[2] = target: T1, asialoglycoprotein receptor (ASGPr); conditions: reported by Lee et al., Glycoconjugate J., 1987; cited from earlier work

| Substance | affinity to asialoglycoprotein receptors [1] | affinity to the ASGP-r [2] |
| --- | --- | --- |
| tris-(N-acetylgalactosamine aminohexyl)glycoside of tyrosyl(glutamyl)2 glutamate [YEEE(GalNAcAH)3] | comparable to YEE(GalNAcAH)3 | – |
| tris-(N-acetylgalactosamine aminohexyl)glycoside of tyrosyl(glutamyl)glutamate [YEE(GalNAcAH)3] | – | subnanomolar |
